Broadly, the Ki is a measure of affinity in units of concentration, obtained from inhibition or displacement. Lower therefore signals higher affinity. As a reminder, the IC50 is the concentration at which inhibition is half-maximal.

Assay [1] concerns the target T1, CGRP receptor (SK-N-MC membrane) (Homo sapiens, UniProt O60894+Q16602).
T1 construct: Purified SK-N-MC membrane was purchased from Perkin Elmer; purchased Perkin Elmer; host or cells: SK-N-MC membrane
As to the kind of experiment: I125-CGRP binding displacement assay on purified SK-N-MC membrane. A digest of the protocol:
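Human SK-N-MC membranes incubated with compounds and I125-CGRP for 2 h at room temperature in 25 mM Tris-HCl pH 7.4, 5 mM MgCl2, 0.1% BSA, 0.05% Tween, then filtered and counted. Nonspecific binding defined with 1 uM unlabelled CGRP; percent displacement fitted to curves.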

The target of a further assay is endogenous CGRP receptor (Homo sapiens, UniProt O60894+Q16602). As to the kind of experiment: CGRP functional antagonism using SK-N-MC-BLA (4C10), β-lactamase transcriptional reporter assay. The format is cell-based. The settings on record: SK-N-MC (4C10) cells, inhibition of β-lactamase expression in the presence of 200 pM CGRP. (In general: In a reporter assay the amount or activity of a reporter protein is the signal.)
Chain of endogenous CGRP receptor (Q16602 23-461): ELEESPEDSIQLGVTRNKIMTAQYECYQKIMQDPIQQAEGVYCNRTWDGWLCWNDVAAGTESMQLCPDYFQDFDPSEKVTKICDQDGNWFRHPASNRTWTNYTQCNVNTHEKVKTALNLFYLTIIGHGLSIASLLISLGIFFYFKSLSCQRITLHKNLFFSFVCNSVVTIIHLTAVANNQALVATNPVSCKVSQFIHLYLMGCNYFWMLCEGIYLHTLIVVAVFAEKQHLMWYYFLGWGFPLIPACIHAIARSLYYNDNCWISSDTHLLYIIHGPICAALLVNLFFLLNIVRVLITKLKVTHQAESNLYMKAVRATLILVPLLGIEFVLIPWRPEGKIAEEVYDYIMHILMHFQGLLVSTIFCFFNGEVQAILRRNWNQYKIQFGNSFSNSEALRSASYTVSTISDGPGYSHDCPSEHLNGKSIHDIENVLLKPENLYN
Chain of endogenous CGRP receptor (O60894 27-148): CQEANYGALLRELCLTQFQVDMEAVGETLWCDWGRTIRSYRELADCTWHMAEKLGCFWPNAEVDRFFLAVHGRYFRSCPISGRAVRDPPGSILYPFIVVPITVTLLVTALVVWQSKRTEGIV

T1 sequence (Q16602 23-461): as the sequence (Q16602 23-461) above
T1 sequence (O60894 27-148): as the sequence (O60894 27-148) above

In assay [1], `CCN1CCC2(CC1)SC(CC(=O)N1CCC(N3CCc4ccccc4NC3=O)CC1)C(=O)N2CCC(C)(C)C` (centres unmarked) [Compound 288] registered a Ki of less than 1000 nM. Further, at endogenous CGRP receptor, the IC50 is less than 1000 nM.

For the compound `CC(C)CCN1C(=O)C(CC(=O)N2CCC(n3c(=O)[nH]c4ccccc43)CC2)SC1c1ccccc1-n1ccnc1` (centres unmarked) [Compound 289], in assay [1], the Ki was less than 1000 nM. For the same compound, the IC50 on endogenous CGRP receptor is less than 1000 nM.

Regarding `CC(C)CCN1C(=O)C(CC(=O)N2CCC(n3c(=O)[nH]c4ccccc43)CC2)S[C@H]1c1ccccc1N1CCC(O)CC1` (some centres unmarked) [Compound 290], the Ki in assay [1] is less than 1000 nM. The IC50 on endogenous CGRP receptor was less than 1000 nM.

`CC(C)(C)CCN1C(=O)C(CC(=O)N2CCC(n3c(=O)[nH]c4ccccc43)CC2)SC1c1ccccc1-n1ccnc1` (centres unmarked) [Compound 295] showed a Ki in assay [1] of less than 1000 nM. Moreover, the IC50 at endogenous CGRP receptor was less than 1000 nM.

For the compound `CC(C)(C)CCN1C(=O)C(CC(=O)N2CCC(n3c(=O)[nH]c4ccccc43)CC2)S[C@H]1c1ccccc1N1CCC(O)CC1` (some centres unmarked) [Compound 296], the Ki in assay [1] was less than 1000 nM. Moreover, the IC50 on endogenous CGRP receptor was less than 1000 nM.

For `CC(C)(C)CCN1C(=O)C(CC(=O)N2CCC(n3c(=O)[nH]c4ccccc43)CC2)SC1c1ccccc1-n1cccn1` (centres unmarked) [Compound 297], the Ki in assay [1] was less than 1000 nM. The IC50 on endogenous CGRP receptor was less than 1000 nM.

For the compound `CN(C)c1ccccc1C1SC(CC(=O)N2CCC(n3c(=O)[nH]c4ccccc43)CC2)C(=O)N1CCC(C)(C)C` (centres unmarked) [Compound 299], in assay [1], the Ki is less than 1000 nM. The IC50 on endogenous CGRP receptor was less than 1000 nM.

The compound `CC(C)(C)CCN1C(=O)C(CC(=O)N2CCC(n3c(=O)[nH]c4ccccc43)CC2)S[C@H]1c1ccccc1N1CCC(O)CC1` (some centres unmarked) [Compound 301] yielded a Ki in assay [1] of less than 1000 nM. Also, the IC50 on endogenous CGRP receptor was less than 1000 nM.

With `CN1CCN(c2ccccc2C2SC(CC(=O)N3CCC(n4c(=O)[nH]c5ccccc54)CC3)C(=O)N2CCC(C)(C)C)CC1` (centres unmarked) [Compound 302], the Ki in assay [1] was less than 1000 nM. The IC50 on endogenous CGRP receptor is less than 1000 nM.

Take `CN1CCN(c2ccccc2C2SC(CC(=O)N3CCC(c4cc5ccccc5[nH]c4=O)CC3)C(=O)N2CCC(C)(C)C)CC1` (centres unmarked) [Compound 303]: the Ki in assay [1] is less than 1000 nM. Moreover, at endogenous CGRP receptor, the IC50 is less than 1000 nM.

The compound `CC(C)(C)CCN1C(=O)C(CC(=O)N2CCC(N3Cc4ccccc4NC3=O)CC2)SC1c1ncc[nH]1` (centres unmarked) [Compound 306] showed a Ki in assay [1] greater than 5000 nM. Also, the IC50 on endogenous CGRP receptor is greater than 5000 nM.

In assay [1], `CN1CCN(c2ccccc2C2N(CCC(C)(C)C)C(=O)C(CC(=O)N3CCC(N4Cc5ccccc5NC4=O)CC3)[S+]2[O-])CC1` (centres unmarked) [Compound 307] had a Ki of less than 1000 nM. In addition, the IC50 on endogenous CGRP receptor is less than 1000 nM.

`CC(C)(C)CCN1C(=O)C(CC(=O)N2CCC(N3Cc4ccccc4NC3=O)CC2)SC12CCCc1ccccc12` (centres unmarked) [Compound 315]: in assay [1], the Ki was less than 1000 nM. The IC50 on endogenous CGRP receptor is less than 1000 nM.

`CC(C)(C)CCN1C(=O)C(CC(=O)N2CCC(N3Cc4ccccc4NC3=O)CC2)SC12CCc1ccccc12` (centres unmarked) [Compound 317]: the Ki in assay [1] is less than 1000 nM. Also, the half-maximal inhibitory concentration (IC50) on endogenous CGRP receptor lay within 1000 to 5000 nM.

In the case of `CN1CCN(c2c(F)cccc2C2SC(CC(=O)N3CCC(N4CCc5ccccc5NC4=O)CC3)C(=O)N2CCC(C)(C)C)CC1` (centres unmarked) [Compound 324], the Ki in assay [1] was less than 1000 nM. The IC50 on endogenous CGRP receptor is less than 1000 nM.

Take `CN1CCN(c2ccccc2C2SC(CC(=O)N3CCC4(CC3)CC(=O)Nc3ccccc3O4)C(=O)N2CCC(C)(C)C)CC1` (centres unmarked) [Compound 328]: the Ki in assay [1] is less than 1000 nM. On endogenous CGRP receptor, the IC50 is less than 1000 nM.

`CN1CCN(c2ccccc2C2SC(CC(=O)N3CCC4(CC3)CNC(=O)c3ccccc3O4)C(=O)N2CCC(C)(C)C)CC1` (centres unmarked) [Compound 330]: in assay [1], the Ki was less than 1000 nM. The IC50 at endogenous CGRP receptor was in the range of 1000 to 5000 nM.

For the compound `CC(C)CCN1C(=O)C(CC(=O)N2CCC3(CC2)CC(=O)c2ccccc2O3)SC1c1ccccc1N1CCN(C)CC1` (centres unmarked) [Compound 331], the Ki in assay [1] is less than 1000 nM. The IC50 on endogenous CGRP receptor was less than 1000 nM.

Turning to `CC(C)N1CCN(c2c(F)cccc2C2SC(CC(=O)N3CCC(N4CCc5ccccc5NC4=O)CC3)C(=O)N2CCC(C)(C)C)CC1` (centres unmarked) [Compound 340], the Ki in assay [1] is greater than 5000 nM. In addition, the IC50 at endogenous CGRP receptor is greater than 5000 nM.

`CC(C)N1CCN(c2c(F)cccc2C2SC(CC(=O)N3CCC(n4c(=O)[nH]c5ncccc54)CC3)C(=O)N2CCC(C)(C)C)CC1` (centres unmarked) [Compound 341] had an inhibition constant Ki in assay [1] of less than 1000 nM. Besides, on endogenous CGRP receptor, the IC50 was less than 1000 nM.

Consider `CCN1CCN(c2c(F)cccc2C2SC(CC(=O)N3CCC(N4CCc5ccccc5NC4=O)CC3)C(=O)N2CCC(C)(C)C)CC1` (centres unmarked) [Compound 345], for which the Ki in assay [1] is less than 1000 nM. In addition, the IC50 at endogenous CGRP receptor is less than 1000 nM.

The compound `CN1CCN(c2cccc(F)c2C2SC(CC(=O)N3CCC(n4c(=O)[nH]c5ccccc54)CC3)C(=O)N2CCC(C)(C)C)CC1` (centres unmarked) [Compound 348] came in with a Ki in assay [1] greater than 5000 nM. Moreover, the IC50 on endogenous CGRP receptor was 1000 to 5000 nM.

In assay [1], `CCN1CCN(c2c(F)cccc2C2SC(CC(=O)N3CCC(n4c(=O)[nH]c5ncccc54)CC3)C(=O)N2CCC(C)(C)C)CC1` (centres unmarked) [Compound 349] returned a Ki of less than 1000 nM. Also, the IC50 on endogenous CGRP receptor was less than 1000 nM.

`CN1CCN(c2cccc(F)c2C2SC(CC(=O)N3CCC(n4c(=O)[nH]c5ncccc54)CC3)C(=O)N2CCC(C)(C)C)CC1` (centres unmarked) [Compound 350] gave a Ki in assay [1] of less than 1000 nM. Moreover, the IC50 on endogenous CGRP receptor is less than 1000 nM.

In assay [1], `CN1CCN(c2ccc(F)cc2C2SC(CC(=O)N3CCC(N4Cc5ccccc5NC4=O)CC3)C(=O)N2CCC(C)(C)C)CC1` (centres unmarked) [Compound 351] gave a Ki of less than 1000 nM. Moreover, on endogenous CGRP receptor, the IC50 fell in the range of 1000 to 5000 nM.

In the case of `CN1CCN(c2ccc(F)cc2C2SC(CC(=O)N3CCC(n4c(=O)[nH]c5ncccc54)CC3)C(=O)N2CCC(C)(C)C)CC1` (centres unmarked) [Compound 353], the Ki in assay [1] is less than 1000 nM. Besides, the IC50 at endogenous CGRP receptor was less than 1000 nM.

For `CN1CCN(c2ccc(F)cc2C2SC(CC(=O)N3CCC(n4c(=O)[nH]c5ccccc54)CC3)C(=O)N2CCC(C)(C)C)CC1` (centres unmarked) [Compound 354], the Ki in assay [1] was less than 1000 nM. The IC50 at endogenous CGRP receptor was less than 1000 nM.

Take `CN1CCN(c2c(Cl)cccc2C2SC(CC(=O)N3CCC(n4c(=O)[nH]c5ncccc54)CC3)C(=O)N2CCC(C)(C)C)CC1` (centres unmarked) [Compound 357]: the Ki in assay [1] is less than 1000 nM. On endogenous CGRP receptor, the IC50 was less than 1000 nM.

Compound `CN1CCN(c2cc(F)ccc2C2SC(CC(=O)N3CCC(n4cc(-c5ccccc5)[nH]c4=O)CC3)C(=O)N2CCC(C)(C)C)CC1` (centres unmarked) [Compound 363] had a Ki in assay [1] of less than 1000 nM. The IC50 on endogenous CGRP receptor is less than 1000 nM.

In assay [1], `CCCCN1CCN(c2ccccc2C2SC(CC(=O)N3CCC(N4CCc5ccccc5NC4=O)CC3)C(=O)N2CCC(C)(C)C)CC1` (centres unmarked) [Compound 365] came in with a Ki of less than 1000 nM. Further, on endogenous CGRP receptor, the IC50 was less than 1000 nM.

Take `CC(C)(C)CCN1C(=O)C(CC(=O)N2CCC(N3Cc4ccccc4NC3=O)CC2)SC1c1ccccc1N1CCN(c2ccccc2)CC1` (centres unmarked) [Compound 367]: in assay [1], the Ki is less than 1000 nM. In addition, the IC50 on endogenous CGRP receptor was less than 1000 nM.

Regarding `CC(C)(C)CCN1C(=O)C(CC(=O)N2CCC(N3Cc4ccccc4NC3=O)CC2)SC1c1ccccc1N1CCN(CCO)CC1` (centres unmarked) [Compound 371], the Ki in assay [1] was less than 1000 nM. For the same compound, the IC50 on endogenous CGRP receptor was less than 1000 nM.

With `CN1CCN(c2ccccc2[C@@H]2S[C@](C)(CC(=O)N3CCC(N4CCc5ccccc5NC4=O)CC3)C(=O)N2CCC(C)(C)C)CC1` [Compound 375], the Ki in assay [1] was less than 1000 nM. In addition, the IC50 on endogenous CGRP receptor was less than 1000 nM.

The compound `CN1CCN(c2ccccc2[C@H]2S[C@](C)(CC(=O)N3CCC(n4c(=O)[nH]c5ncccc54)CC3)C(=O)N2CCC(C)(C)C)CC1` [Compound 380] showed a Ki in assay [1] of less than 1000 nM. Moreover, the IC50 on endogenous CGRP receptor was less than 1000 nM.

The values are drawn from patent US8163737B2 (Vertex Pharmaceuticals Incorporated, priority 2006, dated 2012).
